Assay results as given in BigSolDB 2.1.

CC(=CC(C)=Nc1c(C)cccc1C)Nc1c(C)cccc1C
solubility (mole fraction) (in THF, 273.15 K): 0.345
solubility (mole fraction) (in THF, 278.15 K): 0.362
solubility (mole fraction) (in THF, 283.15 K): 0.381
solubility (mole fraction) (in THF, 288.15 K): 0.403
solubility (mole fraction) (in THF, 293.15 K): 0.429
solubility (mole fraction) (in THF, 298.15 K): 0.456
solubility (mole fraction) (in THF, 303.15 K): 0.487
solubility (mole fraction) (in diethyl ether, 273.15 K): 0.188
solubility (mole fraction) (in diethyl ether, 278.15 K): 0.204
solubility (mole fraction) (in diethyl ether, 283.15 K): 0.22
solubility (mole fraction) (in diethyl ether, 288.15 K): 0.239
solubility (mole fraction) (in diethyl ether, 293.15 K): 0.265
solubility (mole fraction) (in diethyl ether, 298.15 K): 0.295
solubility (mole fraction) (in diethyl ether, 303.15 K): 0.334
solubility (mole fraction) (in ethanol, 273.15 K): 0.0093
solubility (mole fraction) (in ethanol, 278.15 K): 0.0099
solubility (mole fraction) (in ethanol, 283.15 K): 0.0107
solubility (mole fraction) (in ethanol, 288.15 K): 0.0117
solubility (mole fraction) (in ethanol, 293.15 K): 0.0129
solubility (mole fraction) (in ethanol, 298.15 K): 0.0143
solubility (mole fraction) (in ethanol, 303.15 K): 0.0166
solubility (mole fraction) (in methanol, 273.15 K): 0.0015
solubility (mole fraction) (in methanol, 278.15 K): 0.0017
solubility (mole fraction) (in methanol, 283.15 K): 0.002
solubility (mole fraction) (in methanol, 288.15 K): 0.0024
solubility (mole fraction) (in methanol, 293.15 K): 0.0029
solubility (mole fraction) (in methanol, 298.15 K): 0.0033
solubility (mole fraction) (in methanol, 303.15 K): 0.0041
solubility (mole fraction) (in n-hexane, 273.15 K): 0.167
solubility (mole fraction) (in n-hexane, 278.15 K): 0.194
solubility (mole fraction) (in n-hexane, 283.15 K): 0.223
solubility (mole fraction) (in n-hexane, 288.15 K): 0.253
solubility (mole fraction) (in n-hexane, 293.15 K): 0.285
solubility (mole fraction) (in n-hexane, 298.15 K): 0.316
solubility (mole fraction) (in n-hexane, 303.15 K): 0.347
solubility (mole fraction) (in toluene, 273.15 K): 0.266
solubility (mole fraction) (in toluene, 278.15 K): 0.296
solubility (mole fraction) (in toluene, 283.15 K): 0.324
solubility (mole fraction) (in toluene, 288.15 K): 0.347
solubility (mole fraction) (in toluene, 293.15 K): 0.374
solubility (mole fraction) (in toluene, 298.15 K): 0.433
solubility (mole fraction) (in toluene, 303.15 K): 0.503
